Source: publication PMC8861568, “Identification of (Z)-2-benzylidene-dihydroimidazothiazolone derivatives as tyrosinase inhibitors: Anti-melanogenic effects and in silico studies” (Computational and Structural Biotechnology Journal, 2022)
Entries after “also recorded” stand apart in the source; their conditions may differ.

Key:
[1] = target: T1, tyrosinase in B16F10 cells (Mus musculus, UniProt P11344); assay: Cellular tyrosinase inhibition assay in B16F10 cells; type: cell-based, murine; details: 48 h; for cellular tyrosinase activity: 5, 10, 20 μM, α-MSH 1 μM + IBMX 200 μM
T1 construct: endogenous in cells; host or cells: B16F10 murine melanoma cells (ATCC), stimulated with alpha-MSH and IBMX
T1 sequence (P11344 19-533): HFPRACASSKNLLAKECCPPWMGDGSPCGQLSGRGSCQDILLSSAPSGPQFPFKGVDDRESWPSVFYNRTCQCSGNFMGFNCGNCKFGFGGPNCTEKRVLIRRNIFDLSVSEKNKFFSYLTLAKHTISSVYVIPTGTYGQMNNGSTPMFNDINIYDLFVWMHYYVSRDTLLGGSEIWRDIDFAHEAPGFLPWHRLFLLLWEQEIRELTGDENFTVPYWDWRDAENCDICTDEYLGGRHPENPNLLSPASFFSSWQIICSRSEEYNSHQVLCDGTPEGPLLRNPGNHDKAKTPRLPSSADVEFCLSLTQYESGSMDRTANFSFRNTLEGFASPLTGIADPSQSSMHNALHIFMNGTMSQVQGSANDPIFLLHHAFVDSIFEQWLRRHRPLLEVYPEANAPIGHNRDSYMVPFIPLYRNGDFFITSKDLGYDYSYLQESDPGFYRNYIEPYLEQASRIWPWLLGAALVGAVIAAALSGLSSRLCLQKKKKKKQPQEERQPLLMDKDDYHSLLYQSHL
Method: B16F10 cells co-stimulated with α -melanocyte-stimulating hormone (α -MSH) and 3-isobutyl-1-methylxanthine (IBMX) were used to investigate the inhibitory effects of compounds 1b and 1f on mammal cellular tyrosinase. Kojic acid was used as the positive control. […] Cellular tyrosinase activities were determined by measuring optical densities at 492 nm.
Cellular tyrosinase inhibition assays were conducted as previously described with minor modification. B16F10 cells were seeded at a density of 1 × 10^5 cells/well in 6-well plates and incubated in a humidified 5% CO2 atmosphere for 24 h at 37 °C. […] Cells were then washed twice with PBS, lysed by adding 45 mM of phosphate buffer (100 µL) containing 1% Triton X-100 (5 µL) and 1% PMSF (5 µL, phenylmethylsulfonyl fluoride) and frozen at −80 °C for 1 h. Lysates were clarified by centrifugation at 12,000 rpm for 30 min at 4 °C. Cell lysate supernatants (80 µL/well) in a 96-well plate were then mixed with 20 µL of L-DOPA (2 mg/mL in distilled water) and incubated for 30 min at 37 °C. Absorbances of reaction mixtures at 492 nm were recorded using a microplate reader (VersaMax^TM, Molecular Devices, Sunnyvale, CA, USA). Kojic acid was used as the positive control. Protein concentrations were determined using Bicinchoninic Acid (BCA) protein assay reagent using Bovine Serum Albumin (BSA) as the standard (Thermo Scientific, Rockford, IL, USA). All experiments were independently conducted three times.

B16F10 cells = assay: Intracellular melanin content in B16F10 cells; type: cell-based, murine; details: 48 h; for intracellular melanin production compared with kojic acid: α-MSH + IBMX; for intracellular melanin production: 5, 10, 20 μM, α-MSH 1 μM + IBMX 200 μM
Method: To determine whether the inhibitory effects of compounds 1b and 1f on cellular TYR influence melanogenesis, cellular melanin production was measured. As was performed in TYR inhibition experiments, B16F10 cells co-stimulated with α -MSH and IBMX were used to compare the inhibitory effects of 1b and 1f on melanogenesis. Kojic acid was used as the positive control. […] Intracellular melanin contents were determined by measuring optical densities at 405 nm.
The inhibitory effects of compounds 1b and 1f on intracellular melanin contents were investigated as previously described. B16F10 cells were seeded at a density of 1 × 10^5 cells/well in 6-well plates and incubated in a humidified 5% CO2 atmosphere for 24 h at 37 °C. […] For extracellular melanin contents, the optical density of the cell culture media was directly measured at 405 nm. On the other hand, for intracellular melanin contents, the following procedure was performed. Briefly, after washing twice with PBS, adherent cells were detached by incubation in Trypsin/EDTA for 1 min. Pellets were dissolved in 100 μL of 1 N NaOH and then incubated for 1 h at 60 °C to dissolve the melanin. Intracellular melanin was quantified by measuring optical densities at 405 nm using a microplate reader (VersaMax^TM, Molecular Devices, Sunnyvale, CA, USA). Results were normalized versus cell pellet total protein using BCA protein assay reagent using BSA as the standard (Thermo Scientific, Rockford, IL, USA). The intracellular melanin contents were calculated using the following equation: (ΔODsample/ΔODcontrol) × 100%; where ΔODsample = the optical density of the test compound, and ΔODcontrol = the optical density of control. Experiments were performed in triplicate.

[2] = target: mushroom tyrosinase (mTYR) (Agaricus bisporus, UniProt C7FF04); assay: Kinetics of mTYR inhibition (Lineweaver-Burk plots); type: biochemical; details: for mode of mTYR inhibition: Lineweaver-Burk plots, L-tyrosine; for Vmax: independent of inhibitor concentration
Sequence of mushroom tyrosinase (mTYR) (C7FF04 1-392): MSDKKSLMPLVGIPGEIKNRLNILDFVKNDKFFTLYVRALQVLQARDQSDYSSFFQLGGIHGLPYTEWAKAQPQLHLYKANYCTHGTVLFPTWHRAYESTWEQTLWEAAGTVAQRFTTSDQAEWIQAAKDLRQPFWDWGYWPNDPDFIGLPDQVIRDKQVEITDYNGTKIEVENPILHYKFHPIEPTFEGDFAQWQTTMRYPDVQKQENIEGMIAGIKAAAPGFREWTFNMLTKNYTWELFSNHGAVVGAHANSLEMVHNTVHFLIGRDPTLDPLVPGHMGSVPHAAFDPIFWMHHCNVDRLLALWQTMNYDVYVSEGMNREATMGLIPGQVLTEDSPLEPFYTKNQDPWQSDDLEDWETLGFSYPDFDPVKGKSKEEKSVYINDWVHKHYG
Method: Lineweaver-Burk double reciprocal plots were used to determine their inhibitory modes of action. Kinetic analyses were carried out using four concentrations of DHIT derivatives 1b (0, 0.0625, 0.125, or 0.25 μM) and 1f (0, 1, 2, or 4 μM) in the presence of different concentrations of L-tyrosine (0.5, 1, 2, 4, 8, or 16 mM for 1b and 1, 2, 4, or 8 mM for 1f). Lineweaver-Burk double reciprocal plots produced four different lines with different slopes, corresponding to the four concentrations, for each derivative. […] KM values were 1.515, 7.846, 15.740, and 23.586 mM at […], and 3.758, 4.892, 5.206, and 8.127 mM at 0, 1, 2, and 4 μM of 1f, respectively. […] The binding abilities of compounds 1b and 1f to the active site of tyrosinase were also supported by in silico docking simulation results (Figs. 5 and 6).
Lineweaver-Burk plots were used to determine modes of mTYR inhibition. Compounds 1b or 1f (10 μL, final concentrations: 0, 0.0625, 0.125, or 0.25 μM for 1b and 0, 1, 2 or 4 μM for 1f) and mTYR solution (20 μL, 150 units) were added to a 96-well plate containing 170 μL of a mixture containing aqueous L-tyrosine solution at final concentrations of 0.5, 1.0, 2.0, 4.0, 8.0, or 16 mM for 1b or 1.0, 2.0, 4.0, or 8.0 mM for 1f; aqueous L-tyrosine solution, distilled water, and 50 mM potassium phosphate buffer (pH 6.5) in the ratio 10:9:10. Initial rates of dopachrome formations in reaction mixtures were calculated by measuring increases in optical density at 492 nm (ΔOD492/min) using a microplate reader (VersaMax^TM, Molecular Devices, Sunnyvale, CA, USA). Maximum velocities of tyrosinase-L-tyrosine reactions were determined using Lineweaver-Burk plots (inverse of reaction velocity (1/V) versus the inverse of L-tyrosine concentration (1/[S])) obtained using 4 – 5 different concentrations of L-tyrosine. Modes of tyrosinase inhibition were determined using convergence points of plots.

| Compound | cellular tyrosinase inhibition compared with kojic acid ([1]; 1b at 10 μM, α-MSH + IBMX) | cellular tyrosinase activity [1] | intracellular melanin production compared with kojic acid (B16F10 cells; 1b at 5 μM) | intracellular melanin production (B16F10 cells) | mode of mTYR inhibition [2] | Ki ([2]; at 0.0625 μM of 1b) | Ki ([2]; at 0.125 μM of 1b) | Ki ([2]; at 0.25 μM of 1b) | Vmax [2] | intracellular melanin production compared with kojic acid (B16F10 cells; 1f at 20 μM, kojic acid 20 μM) | Ki ([2]; at 1 μM of 1f) | Ki ([2]; at 2 μM of 1f) | Ki ([2]; at 4 μM of 1f) |
| --- | --- | --- | --- | --- | --- | --- | --- | --- | --- | --- | --- | --- | --- |
| O=c1/c(=C/c2ccc(O)cc2O)sc2n1CCN=2 [Compound 1b, (Z)-2-(2,4-Dihydroxybenzylidene)-5,6-dihydroimidazo[2,1-b]thiazol-3(2H)-one] | to the same extent as compound 1f or kojic acid at 20 μM | significantly and concentration-dependently reduced this increase in tyrosinase activity | by the same extent as kojic acid at 20 μM | significantly and concentration-dependently suppressed this increase | competitive inhibitors; also recorded: competitively inhibited | 15 nM | 13.3 nM | 17.2 nM | 0.0126 mM/min |  |  |  |  |
| COc1ccc(/C=c2\sc3n(c2=O)CCN=3)cc1O [Compound 1f, (Z)-2-(3-Hydroxy-4-methoxybenzylidene)-5,6-dihydroimidazo[2,1-b]thiazol-3(2H)-one] |  | significantly and concentration-dependently reduced this increase in tyrosinase activity |  | significantly and concentration-dependently suppressed this increase | competitive inhibitors; also recorded: competitively inhibited |  |  |  | 0.0103 mM/min | stronger inhibitory effect on melanogenesis than kojic acid | 3310 nM | 5190 nM | 3440 nM |
